Entries after “also recorded” stand apart in the source; their conditions may differ.
Key:
SLFN11 transcript [1] = experiment: Microarray analysis of subcutaneous Mv4-11 xenograft tumors (study 1 and study 2); format: in vivo, NOD/SCID mice; conditions: for downregulation of SLFN11 transcript (Rank Product Analysis): study 2, Mv4-11 xenografts, vs control
Method: (§1) To identify new potential biomarkers of BGB324 efficacy in AML, microarray analyses of tumor material from several AML studies were performed. In the first two studies, NOD/SCID mice were implanted with subcutaneous Mv4-11 xenografts. In study 1 the mice were treated with control (vehicle) or a single dose of BGB324 (50 or 100 mg/kg), and sacrificed after 24 hours. In study 2 the mice were treated BID for 14 days with control (vehicle), low (25 mg/kg) or high (50 mg/kg) dose of BGB324 for 14 days. In a third study, MOLM13 cells were injected intravenously into the tail vein of NSG mice. After three days of inoculation, the animals were treated with control (vehicle), high (50 mg/kg) or low (25 mg/kg) dose of BGB324 QD until the vehicle-treated animals were moribund (14 days after initiation of treatment). Development of leukemia was confirmed by flow cytometric analyses of human CD33/CD45-positive cells in the blood, spleens and bone marrow, and RNA isolated from spleens were sent for microarray analysis.
One of the most interesting hits from a Rank Product Analysis of study 2 was a transcript called SLFN11.

SLFN11 transcript [2] = experiment: Microarray analysis of spleen RNA, systemic MOLM13 AML model (study 3); format: in vivo, NSG mice; conditions: study 3, systemic MOLM13, 25 or 50 mg/kg QD, 14 days
Method: as §1

Slfn11 protein = experiment: Western blot of MV4-11 subcutaneous tumor xenograft lysates; format: in vivo, mice; conditions: MV4-11 xenografts
Method: (§2) For western blot analysis, cells were lysed on ice using NP-40 lysis buffer with protease- and phosphatase inhibitors. Total protein concentration in lysates was measured using a BCA protein assay kit following the manufacturers instructions. 10% NuPAGE® Bis-Tris precast gels were loaded with 30-50 μg of protein in each well diluted in sample buffer and antioxidant. A 1:1 mix of MagicMark™ XP Western Protein Standard (Invitrogen) and SeeBlue® Plus 2 Pre-Stained Standard was used as protein standard. Gels were run at 50V for 20 min, then at 100V for 1 h30 min. Blotting was done on ice for 1 h 30 min at 100V onto PVDF (pre-activated with MeOH) or nitrocellulose membranes. Membranes were washed in TBS-0.1% Tween-20 (TBS-T), and blocked in TBS-T 5% BSA for at least 1 h at RT. Primary antibody was added at 1:1000 in TBS-T 5% BSA (rabbit-anti-actin Ab was added at 1:2000, rabbit anti-GAPDH Ab was added at 1:3000) in TBS-T 5% BSA, and membranes were incubated over night at 4° C. Membranes were then washed 3× in TBS-T, and incubated in HRP-conjugated secondary antibody at 1:5000 dilution in TBS-T 5% milk for 45 min at RT. Membranes were developed for 1 min using ECL-reagents and imaged with chemiluminescence using a Molecular Imager ChemiDoc™ XRS (BioRad).
In these studies, mice had been treated with BGB324 25 mg/kg BID and 50 mg/kg BID 2-5 cycle for 14 days, or with a single dose 100 mg/kg (tumors harvested 6 h after treatment).
Since Slfn11 was reduced in only one of two parallel tumor samples after a single treatment, it was decided to examine more lysates from Study 1 by western blot. In this study, mice with subcutaneous MV4-11 tumor xenografts were treated with a single low (50 mg/kg) or high (100 mg/kg) dose of BGB324, and tumors were harvested at different time points, from 4 hours up to 72 hours after treatment. […] Thus, it appears that Slfn11 is reduced in MV4-11 xenografts within 24-72 hours (depending on the drug concentration) after treatment with a single dose of BGB324. The effect of BGB324 on Slfn11 expression in these tumors appears to be long-lasting, as the protein level stays low 72 hours after treatment. However, there appear to be individual differences, and more than two parallel samples of each time point need to be examined in order to better understand the dynamics of Slfn11 reduction in MV4-11 xenografts after BGB324-treatment.

[3] = tested on: Slfn11 expression in MOLM-13 cells; experiment: Flow cytometry of Slfn11 expression in MOLM-13 cells after treatment; format: cell-based, human
Method: (§3) Live cells were centrifuged at 300 g for 5 minutes, washed once with PBS and centrifuged again. Cells were then fixed in 4% PFA in PBS for 10 minutes at 37° C., and resuspended in PBS. Unless processed immediately, samples were at this point stored in PBS at 4° C. (up to three weeks) or at −80° C. (for long-term storage). If intracellular epitopes were stained, cells were permebealized in 90% MeOH for 30 minutes on ice. Unless processed immediately, samples were also be stored in 90% MeOH at −20° C. for up to two months.
(§4) Cells (150-200 000 per sample) were washed 1× in PBS and incubated in blocking buffer; (PBS+0.5% BSA) for 15 minutes at room temperature. Thereafter, cells were incubated with primary mouse-anti-human SLFN11 Ab at the indicated dilutions in incubation buffer (IB, PBS+0.5% BSA) for 1 hour at room temperature. Cells were then washed 3× with IB and incubated with secondary AB (conjugated to a fluorescent flurophore) at 1:1000 dilution in IB for 30 minutes at room temperature. Finally, cells were washed 3× in IB and resuspended in PBS. For costaining experiments, cells were subsequently incubated with mouse-anti-human Axl Ab (1H12-A647 conjugated Ab) diluted 1:3000 in IB. Cells were analyzed immediately, or stored for up to 24 hours at 4° C. before analysis.
Analysis of cells was done on a BD LSR Fortessa or a BD C6 Accuri flow cytometer, and further processing was done using FlowJo v.7.6.

[4] = tested on: Slfn11 expression in OCI-M1 cells; experiment: Flow cytometry of Slfn11 expression in OCI-M1 cells after treatment; format: cell-based, human; conditions: OCI-M1, treated at IC50-values for 24, 48 and 72 hours
Method: as §3
as §4, with “analysis. […]” for “analysis.”

[5] = tested on: Slfn11 expression in OCI-AML3 cells; experiment: Flow cytometry of Slfn11 expression in OCI-AML3 cells after treatment; format: cell-based, human; conditions: OCI-AML3, treated at IC50-values for 24, 48 and 72 hours
Method: as §3
as §4, with “analysis. […]” for “analysis.”

[6] = tested on: SLFN11 expression in Mv4-11 cells; experiment: Flow cytometry of total SLFN11 in Mv4-11 cells after long-term treatment; format: cell-based, human
Method: as §3
as §4, with “analysis. […]” for “analysis.”

[7] = tested on: SLFN11 expression in Kasumi cells; experiment: Flow cytometry of total SLFN11 in Kasumi cells after long-term treatment; format: cell-based, human; conditions: 2.5 μM
Method: as §3
as §4, with “analysis. […]” for “analysis.”

[8] = tested on: SLFN11 expression in OCI-AML5 cells; experiment: Flow cytometry of total SLFN11 in OCI-AML5 cells after long-term treatment; format: cell-based, human; conditions: OCI-AML5, 2.5 μM
Method: as §3
as §4, with “analysis. […]” for “analysis.”

[9] = tested on: Slfn11 expression in MOLM-13 cells; experiment: Western blot of Slfn11 in MOLM-13 cells, increasing doses; format: cell-based, human; conditions: MOLM-13, 48 hours, increasing doses 0.1 uM to 1.2 uM
Method: as §2

[10] = tested on: MOLM13 leukemic cells (CD33/CD45-positive); experiment: MOLM13 systemic xenograft model: CD33/CD45-positive leukemic cells by flow cytometry; format: in vivo, mice; conditions: 50 mg/kg for 4 days
Method: (§5) Material from an in vivo MOLM13 systemic model was also evaluated by flow cytometry. Expression of the previously evaluated biomarkers was examined in cells isolated from bone marrows and spleens of animals with systemic AML disease (MOLM13, inoculated for 7 days prior to treatment) treated with BGB324 at 50 mg/kg for 4 days.
Cells harvested from spleens, blood and bone marrows of the animals were stained with anti CD33 and CD45 antibodies, to determine if systemic disease was established. CD33/CD45-positive cells were identified in spleens (around 10-15%), bone marrows (35-40%) and in the blood (2-6%) of the animals, confirming that the disease was established.

pErk = experiment: MOLM13 systemic xenograft model: biomarker flow cytometry in CD33-positive cells, pErk; format: in vivo, mice; conditions: 50 mg/kg for 4 days
Method: as §5
(§6) Cells isolated from spleens and bone marrows were assessed for phosphorylation of Erk, PLCγ1 and Akt, and expression of PHGDH and SLFN11. The samples were also co-stained with CD33, and biomarker expression was only evaluated in CD33-positive cells.

pPLCγ1 = experiment: MOLM13 systemic xenograft model: biomarker flow cytometry in CD33-positive cells, pPLCγ1; format: in vivo, mice; conditions: 50 mg/kg for 4 days
Method: as §5, §6

PHGDH = experiment: MOLM13 systemic xenograft model: biomarker flow cytometry in CD33-positive cells, PHGDH; format: in vivo, mice; conditions: 50 mg/kg for 4 days
Method: as §5, §6

SLFN11 = experiment: MOLM13 systemic xenograft model: biomarker flow cytometry in CD33-positive cells, SLFN11; format: in vivo, mice; conditions: bone marrows, 50 mg/kg for 4 days
Method: as §5, §6

pAkt = experiment: MOLM13 systemic xenograft model: biomarker flow cytometry in CD33-positive cells, pAkt; format: in vivo, mice; conditions: 50 mg/kg for 4 days
Method: as §5, §6

SMILES: Nc1nc(Nc2ccc3c(c2)CC[C@@H](N2CCCC2)CC3)nn1-c1cc2c(nn1)-c1ccccc1CCC2 [BGB324]
- reduction of SLFN11 transcript (Rank Product Analysis) (SLFN11 transcript [1]; study 1, Mv4-11 xenografts, single dose (50 or 100 mg/kg), sacrificed after 24 hours): 1.449 fold
- SLFN11 transcript regulation after 14d treatment (in words) (SLFN11 transcript [1]; study 2, 25 and 50 mg/kg): highly significant dose-dependent downregulation
- SLFN11 transcript, SAM (significance of microarray) analysis (SLFN11 transcript [1]; study 2, 14 d treatment, q=0.0): reduction of SLFN11 as the most significant (#1) hit
- downregulation of SLFN11 transcript (Rank Product Analysis) (SLFN11 transcript [1]; 25 mg/kg BID for 14 days): 1.98 fold
- downregulation of SLFN11 transcript (Rank Product Analysis) (SLFN11 transcript [1]; 50 mg/kg BID for 14 days): 3.98 fold
- SLFN11 transcript regulation in spleens (SLFN11 transcript [2]): not among the transcripts that were significantly downregulated
- Slfn11 protein compared to control levels (western blot) (Slfn11 protein; 25 mg/kg BID and 50 mg/kg BID, 14 days): marked reduction
- Slfn11 protein (western blot) (Slfn11 protein; single dose 100 mg/kg, tumors harvested 6 h after treatment): reduced in one of the two parallel samples
- duration of effect on Slfn11 protein level (Slfn11 protein; single dose, 72 hours after treatment): stays low
- time after single dose within which Slfn11 is reduced (Slfn11 protein; single dose, depending on the drug concentration): 24 to 72 h
- Slfn11 protein (western blot) (Slfn11 protein; single high dose 100 mg/kg, 24, 48 and 72 hours after treatment): reduction
- Slfn11 protein (western blot) (Slfn11 protein; single high dose 100 mg/kg, time points earlier than 24 hours (from 4 hours)): not at earlier time points
- Slfn11 protein (western blot) (Slfn11 protein; single low dose 50 mg/kg, 72 hours after treatment): slight reduction
- total protein expression of SLFN11 (flow cytometry, % of control) ([3]; MOLM13, 0.3 μM, 24, 48 and 72 hours): significant reduction
- SLFN11 expression (flow cytometry) ([3]; MOLM-13, 48 hours, increasing doses 0.1 uM to 1.2 uM): dose-dependent downregulation; also recorded: confirmed
- SLFN11 expression (flow cytometry) ([3]; MOLM-13, treated at IC50-values for 24, 48 and 72 hours): marked reduction
- SLFN11 expression (flow cytometry) [4]: marked reduction
- SLFN11 expression (flow cytometry) [5]: marked reduction
- total protein expression of SLFN11 (flow cytometry, % of control) ([6]; Mv4-11, 0.1 uM, 72 hours): significantly reduced
- total protein expression of SLFN11 (flow cytometry, % of control) ([6]; Mv4-11, 0.3 μM, 24, 48 and 72 hours): significant reduction
- total protein expression of SLFN11 (flow cytometry, % of control) ([7]; 24 and 48 hours): no significant differences
- total protein expression of SLFN11 (flow cytometry, % of control) ([7]; 72 hours): significant increase
- total protein expression of SLFN11 (flow cytometry, % of control) ([8]; 24 and 48 hours): no significant differences
- total protein expression of SLFN11 (flow cytometry, % of control) ([8]; 72 hours): significant increase
- Slfn11 expression (western blot) [9]: dose-dependent downregulation; also recorded: dose-dependent reduction
- Slfn11 expression (western blot) ([9]; listed as BGB324/R428): reduced in a dose-dependent manner
- percentage of leukemic cells (CD33/CD45-positive) vs. vehicle-treated ([10]; blood): significantly higher percentage
- percentage of leukemic cells (CD33/CD45-positive) vs. vehicle-treated ([10]; bone marrows): no significant differences
- percentage of leukemic cells (CD33/CD45-positive) vs. vehicle-treated ([10]; spleens): no significant differences
- pErk in CD33-positive cells (pErk; bone marrows): significant reduction
- pErk in CD33-positive cells (pErk; spleens): significant reduction
- pPLCγ1 in CD33-positive cells (pPLCγ1; bone marrows): significant reduction
- pPLCγ1 in CD33-positive cells (pPLCγ1; spleens): significant reduction
- PHGDH expression in CD33-positive cells (PHGDH; bone marrows): significant reduction
- PHGDH expression in CD33-positive cells (PHGDH; spleens): significant reduction
- SLFN11 expression in CD33-positive cells (SLFN11): significant reduction
- pAkt change in CD33-positive cells (pAkt; bone marrows): not significant
- pAkt change in CD33-positive cells (pAkt; spleens): not significant
